{"source": "patent US12116388B2", "about": "“Amylin receptor agonists” (Novo Nordisk A/S, priority 2022, dated 2024)", "tested_on": "Sprague Dawley (SD) rats", "test": "Acute food intake in ad libitum fed rat model", "type": "in vivo", "conditions": "single s.c. administration, negative value = reduced food intake", "description": "Lyophilised compound was dissolved in vehicle, 8 mM phosphate, 250 mM glycerol, 0.007% polysorbate 20, and pH was adjusted to 7.4 with 1N NaOH.\nNormal weight Sprague Dawley (SD) rats from Taconic Europe, Denmark, were used for the acute food intake studies. The purpose of these studies was to test in vivo effect on food intake and to provide an indication of the compounds' duration of action. Experiments were conducted with permission from the Danish Animal Experiments Inspectorate and were performed in accordance with the guidelines of the Danish legislation governing animal experimentation (1987) as well as the National Institutes of Health (publication number 85-23) and the European Convention for the Protection of Vertebrate Animals used for Experimental and other Scientific Purposes (Council of Europe No 123, Strasbourg 1985).\nPrior to study start, rats were acclimatized to the experimental settings for 14 days. During this period, the animals were handled at least 2 times. Immediately upon arrival, rats were put on a reversed light cycle (dark from 10 am-10 pm or 11 am-11 pm) and were transferred into one of three following food intake measuring systems: FeedWin, BioDaq or HM2. Rats were single housed in the FeedWin and BioDaq system and were housed three a cage in the HM2 system (rats were in this case ID-chipped). During the acclimatization period, in which the rats get used to the new light cycle and diet, the animals had free access to food and water. […] Each amylin analogue was tested in a group of 5-6 rats. A vehicle group of 5-6 rats was included in each experiment and were used as reference point. […] The time of dosing was recorded for each rat.\nAfter dosing, rats were returned to their home cages, where they had access to food and water. Food consumption was recorded individually and continuously by on-line registration for up to 72 h post dosing. At the end of the experiment, body weight was measured again, and animals were euthanized by CO2 overdose.", "note": "Starred links: 1 amine or outer side, 2 acyl side, 3 side chain; linkers in the order of their positions; H or OH if unused. Residues, ends and D or L forms follow the SMILES beside them. Groups on a side chain read outwards from the residue. *: point of attachment. C18 diacid = O=C(O)CCCCCCCCCCCCCCCCC(=O)*; γGlu = O=C(O)[C@H](CCC(=O)[*:2])N[*:1]"}
{"smiles": "CC[C@H](C)[C@H](NC(=O)[C@H](CCCCNC(=O)CC[C@H](NC(=O)CCCCCCCCCCCCCCCCC(=O)O)C(=O)O)NC(=O)CNC(=O)[C@H](Cc1ccccc1)NC(=O)[C@H](CC(N)=O)NC(=O)[C@H](CC(=O)O)NC(=O)[C@H](CO)NC(=O)[C@H](CO)NC(=O)[C@H](Cc1c[nH]cn1)NC(=O)[C@H](Cc1c[nH]cn1)NC(=O)[C@H](CC(C)C)NC(=O)[C@H](Cc1ccccc1)NC(=O)[C@H](CCC(=O)O)NC(=O)[C@H](C)NC(=O)[C@H](CC(C)C)NC(=O)[C@H](CCCNC(=N)N)NC(=O)[C@H](C)NC(=O)[C@@H](NC(=O)[C@H](CCC(N)=O)NC(=O)[C@H](C)NC(=O)[C@@H](NC(=O)[C@H](CO)NC(=O)[C@H](CC(C)C)NC(=O)[C@H](Cc1c[nH]cn1)NC(=O)[C@H](CO)NC(=O)[C@H](C)NC(C)=O)[C@@H](C)O)[C@@H](C)O)C(=O)N[C@@H](CC(C)C)C(=O)N1CCC[C@H]1C(=O)N1CCC[C@H]1C(=O)N[C@H](C(=O)N[C@@H](CC(=O)O)C(=O)N[C@H](C(=O)NCC(=O)N[C@@H](CO)C(=O)N[C@@H](CC(N)=O)C(=O)N[C@H](C(=O)N1CCC[C@H]1C(N)=O)[C@@H](C)O)C(C)C)[C@@H](C)O", "note": "[Compound 41, N^1-acetyl,N{Epsilon-25}-[(4S)-4-carboxy-4-(17-carboxyheptadecanoylamino)butanoyl]-[Ala1,Ser2,His3,Leu4,Ser5,Ala7,Gln8,Ala10,Glu14,His17,Asp21,Lys25,Pro28,Pro29,Asp31,Pro37]-human amylin] (Ac-ASHLSTAQTARLAEFLHHSSDNFGK([γGlu-C18 diacid])ILPPTDVGSNTP-NH2)", "values": [{"measurement": "Food intake relative to vehicle (%) 0-24 hr, 3 nmol/kg", "setting": "0-24 hr", "result": "−88", "unit": "%"}, {"measurement": "Food intake relative to vehicle (%) 24-48 hr, 3 nmol/kg", "setting": "24-48 hr", "result": "−76", "unit": "%"}, {"measurement": "Food intake relative to vehicle (%) 48-72 hr, 3 nmol/kg", "setting": "48-72 hr", "result": "−15", "unit": "%"}]}
